For one test, the system named is REN cells. Briefly: Proliferation assay (Trypan blue viable cell count; wash-off and add-on experiments) in REN cells. Particulars: concentrations used in Example 2(a), said in b159 to be the respective IC50 concentrations, read-out: IC50 concentration in REN cells. The class given is cell-based, human. On the procedure: (§1) Cells were seeded at a density of 10×10^4 cells/well in 6-well plates in RPMI medium supplemented with 10% FBS, 100 μg/ml streptomycin and 10 μg/ml penicillin and incubated over-night at 37° C. in a humidified environment containing 5% CO2 to allow adherence. Following treatment cells were trypsinized and stained with Trypan blue. The number of cells considered viable (unstained cells) was counted in a Bürker haemocytometer within 5 minutes after staining.
Control cultures were maintained in normal growth medium without added drug. The number of viable cells was determined as described for the proliferation assay.
In the add-on experiments the second drug was added directly to the cell culture medium without wash-off of the first drug. […] Control cultures were maintained in normal growth medium without added drug. The number of viable cells was determined as described for the proliferation assay.

In another test the test system is MET5A cells. Briefly: Proliferation assay in non-malignant mesothelial MET5A cells. The class given is cell-based. Particulars: 24 hours treatment. As to the method: as §1
Cell cultures were pretreated with Compound (I) for 1-16 hours (depending on experiment) followed by wash-off and then replenished with normal growth medium±cisplatin, pemetrexed or cisplatin/pemetrexed. Total incubation time was 24-72 hours (depending on experiment). Control cultures were maintained in normal growth medium without added drug. The number of viable cells was determined as described for the proliferation assay.

Another test relates to PARP1 cleavage. Kind of test: Western blot of PARP1 cleavage in REN cells. The class given is cell-based, human. Particulars: agent alone. As to the method: Cells were extracted with 1% NP-40 lysis buffer (1% NP-40, 150 mM NaCl, 50 mM Tris-HCl pH 8.5 mM EDTA, 10 mM NaF, 10 mM Na4P2O7, 0.4 mM Na3VO4) with freshly added protease inhibitors (10 μg/ml leupeptin, 4 μg/ml pepstatin and 0.1 Unit/ml aprotinin). For protein extraction from tissues, ˜100 mg of each sample were homogenized, using a Potter-Elvehjem homogenizer device, in 1% NP-40 lysis buffer. Lysates were centrifuged at 13.000×g for 10 minutes at 4° C. and the supernatants were collected and assayed for protein concentration with the Bio-Rad protein assay method.
Proteins were separated by SDS-PAGE under reducing conditions. Following SDS-PAGE, proteins were transferred to nitrocellulose, reacted with specific antibodies and then detected with peroxidase-conjugate secondary antibodies and chemioluminescent ECL reagent. Densitometric analysis was performed using the GS 250 Molecular Image (Bio-Rad).
Levels of PARP1, cleaved PARP1, AKT and phosphorylated AKT in REN cells treated for 24 hours with cisplatin (25, 50 and 100 μM) or pre-treated 2 hours with Compound (I) (10 nM) followed by wash-off and continued growth in normal medium±cisplatin (25, 50 and 100 μM), for an additional 24 hours were also determined by Western blot analysis and relative densitometry. Total AKT and Tubulin staining were used for normalization. PARP1 cleavage was analysed as it is an indicator of apoptotic cell death. As increased AKT activity has been implicated in the control of proliferation, apoptosis and cisplatin resistance (Pinton G., et al, PLoS One (2012) 7:e36856), AKT activation status following different treatments was also analysed.
(A western blot detects proteins with antibodies after separation by electrophoresis.)

Structures are written as SMILES. Where two headings read alike, the source gives them in different places.

With `N.N.[Cl][Pt][Cl]` [cisplatin, reference compound], the IC50 in the test on REN cells came to 100 µM; in the test on MET5A cells, 25 µM. Also, the “PARP1 cleavage, single agent” value in the test on PARP1 cleavage is “neither cisplatin nor Compound (I) alone resulted in significant PARP1 cleavage”.

Take `Nc1nc2[nH]cc(CCc3ccc(C(=O)N[C@@H](CCC(=O)O)C(=O)O)cc3)c2c(=O)[nH]1` [pemetrexed, reference compound]: the IC50 in the test on REN cells (Homo sapiens) amounted to 22 µM.
